Measured values published in the Kinase Knowledgebase extract (Sharma et al. 2016).

What follows are compounds tested against EGFR (human) (UniProt P00533). Details: a431.
Chain of EGFR (human) (P00533 whole entry, looked up): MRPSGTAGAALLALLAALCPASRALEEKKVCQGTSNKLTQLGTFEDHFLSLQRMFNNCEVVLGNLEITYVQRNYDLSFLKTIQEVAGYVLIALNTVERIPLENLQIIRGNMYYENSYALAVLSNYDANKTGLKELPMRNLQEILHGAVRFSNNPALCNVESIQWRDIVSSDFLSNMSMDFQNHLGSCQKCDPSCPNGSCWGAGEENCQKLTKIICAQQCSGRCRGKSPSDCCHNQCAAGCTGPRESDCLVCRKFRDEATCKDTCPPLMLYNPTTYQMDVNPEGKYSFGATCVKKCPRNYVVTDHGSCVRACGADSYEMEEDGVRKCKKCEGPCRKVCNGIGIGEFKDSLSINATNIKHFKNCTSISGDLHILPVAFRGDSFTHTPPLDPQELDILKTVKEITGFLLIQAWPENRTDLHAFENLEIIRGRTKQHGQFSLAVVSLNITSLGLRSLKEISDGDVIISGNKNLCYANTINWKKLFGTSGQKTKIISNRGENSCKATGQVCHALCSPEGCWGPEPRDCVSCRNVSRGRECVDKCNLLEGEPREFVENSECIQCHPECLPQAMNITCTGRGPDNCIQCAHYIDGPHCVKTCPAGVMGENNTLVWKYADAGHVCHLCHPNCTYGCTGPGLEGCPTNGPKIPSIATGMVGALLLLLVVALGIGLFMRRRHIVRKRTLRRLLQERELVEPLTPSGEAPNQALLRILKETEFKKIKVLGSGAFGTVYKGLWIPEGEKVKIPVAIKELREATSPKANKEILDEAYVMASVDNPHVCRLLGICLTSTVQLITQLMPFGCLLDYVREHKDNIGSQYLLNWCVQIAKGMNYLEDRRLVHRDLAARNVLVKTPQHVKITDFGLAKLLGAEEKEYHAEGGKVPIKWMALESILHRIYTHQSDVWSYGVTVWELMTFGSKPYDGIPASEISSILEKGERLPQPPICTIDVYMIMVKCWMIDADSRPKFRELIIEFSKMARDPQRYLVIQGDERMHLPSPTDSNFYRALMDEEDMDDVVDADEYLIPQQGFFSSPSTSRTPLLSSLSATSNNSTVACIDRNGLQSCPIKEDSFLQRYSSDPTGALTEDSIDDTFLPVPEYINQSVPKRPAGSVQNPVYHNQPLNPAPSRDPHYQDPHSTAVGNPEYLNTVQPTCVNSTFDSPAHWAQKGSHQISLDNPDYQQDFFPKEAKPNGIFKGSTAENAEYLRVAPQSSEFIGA

IC50 [µM]	Structure (SMILES)
≤ 5	Fc1cccc(COc2ccc(Nc3ncnc4sc5cc(CCN6CCNCC6)ccc5c34)cc2Cl)c1
≤ 5	CCN1CCN(C(=O)/C=C/c2ccc3c(c2)sc2ncnc(Nc4ccc(OCc5cccc(F)c5)c(Cl)c4)c23)CC1
≤ 5	OCC(O)c1ccc2c(c1)sc1ncnc(Nc3ccc4c(cnn4Cc4cccc(F)c4)c3)c12 (centres undefined)
≤ 5	OCCNCCc1ccc2c(c1)sc1ncnc(Nc3ccc(OCc4cccc(F)c4)c(Cl)c3)c12
≤ 5	Fc1cccc(COc2ccc(Nc3ncnc4sc5cc(CCN6CCSCC6)ccc5c34)cc2Cl)c1
≤ 5	Fc1cccc(COc2ccc(Nc3ncnc4sc5cc(OCCCN6CCOCC6)ccc5c34)cc2Cl)c1
≤ 5	OC[C@@H](O)[C@H](O)c1ccc2c(c1)sc1ncnc(Nc3ccc(OCc4cccc(F)c4)c(Cl)c3)c12
≤ 5	COC[C@H]1CCCN1CCc1ccc2c(c1)sc1ncnc(Nc3ccc(OCc4cccc(F)c4)c(Cl)c3)c12
≤ 5	CN1CCN(C(=O)/C=C/c2ccc3c(c2)sc2ncnc(Nc4ccc(OCc5cccc(F)c5)c(Cl)c4)c23)CC1
≤ 5	CN(C)CCNC(=O)Cc1ccc2c(c1)sc1ncnc(Nc3ccc4c(cnn4Cc4cccc(F)c4)c3)c12
≤ 5	CN1CCN(CCc2ccc3c(c2)sc2ncnc(Nc4ccc5c(cnn5Cc5cccc(F)c5)c4)c23)CC1
≤ 5	CS(=O)(=O)CCNC(=O)CCc1ccc2c(c1)sc1ncnc(Nc3ccc(OCc4cccc(F)c4)c(Cl)c3)c12
≤ 5	NS(=O)(=O)OCCc1ccc2c(c1)sc1ncnc(Nc3ccc(OCc4ccccn4)c(Cl)c3)c12
≤ 5	COCCNCCc1ccc2c(c1)sc1ncnc(Nc3ccc(OCc4ccccn4)c(Cl)c3)c12
≤ 5	CCNCCc1ccc2c(c1)sc1ncnc(Nc3ccc(OCc4ccccn4)c(Cl)c3)c12
≤ 5	OC[C@H](O)[C@@H](O)c1ccc2c(c1)sc1ncnc(Nc3ccc(OCc4cccc(F)c4)c(Cl)c3)c12
≤ 5	Fc1cccc(COc2ccc(Nc3ncnc4sc5cc(OCCN6CCOCC6)ccc5c34)cc2Cl)c1
≤ 5	OCCc1ccc2c(c1)sc1ncnc(Nc3ccc4c(cnn4Cc4ccccn4)c3)c12
≤ 5	OCCc1ccc2c(c1)sc1ncnc(Nc3ccc4c(cnn4Cc4cccc(F)c4)c3)c12
≤ 5	CN(C)[C@H]1CCN(CCc2ccc3c(c2)sc2ncnc(Nc4ccc(OCc5cccc(F)c5)c(Cl)c4)c23)C1
≤ 5	CN(C)[C@H]1CCN(C(=O)CCc2ccc3c(c2)sc2ncnc(Nc4ccc(OCc5cccc(F)c5)c(Cl)c4)c23)C1

IC50 [µM]	Structure (SMILES)
≤ 5	Fc1cccc(COc2ccc(Nc3ncnc4sc5cc(CCN6CCCC6)ccc5c34)cc2Cl)c1
≤ 5	OC[C@H](O)c1ccc2c(c1)sc1ncnc(Nc3ccc(OCc4cccc(F)c4)c(Cl)c3)c12
≤ 5	O=C(Cc1ccc2c(c1)sc1ncnc(Nc3ccc(OCc4cccc(F)c4)c(Cl)c3)c12)N1CCNCC1
≤ 5	OCC(O)C(O)c1ccc2c(c1)sc1ncnc(Nc3ccc(OCc4cccc(F)c4)c(Cl)c3)c12 (centres undefined)
≤ 5	CO[C@H]1CCN(CCc2ccc3c(c2)sc2ncnc(Nc4ccc(OCc5cccc(F)c5)c(Cl)c4)c23)C1
≤ 5	Fc1cccc(COc2ccc(Nc3ncnc4sc5cc(CCN6CCCCC6)ccc5c34)cc2Cl)c1
≤ 5	CN(C)[C@H]1CCN(C(=O)/C=C/c2ccc3c(c2)sc2ncnc(Nc4ccc(OCc5cccc(F)c5)c(Cl)c4)c23)C1
≤ 5	OC[C@@H](O)c1ccc2c(c1)sc1ncnc(Nc3ccc(OCc4cccc(F)c4)c(Cl)c3)c12
≤ 5	COCCN(CCOC)CCc1ccc2c(c1)sc1ncnc(Nc3ccc(OCc4cccc(F)c4)c(Cl)c3)c12
≤ 5	O=C(Cc1ccc2c(c1)sc1ncnc(Nc3ccc(OCc4cccc(F)c4)c(Cl)c3)c12)NCCOCCO
≤ 5	CN1CCN(CCc2ccc3c(c2)sc2ncnc(Nc4ccc(OCc5ccccn5)c(Cl)c4)c23)CC1
≤ 5	Clc1cc(Nc2ncnc3sc4cc(CCBr)ccc4c23)ccc1OCc1ccccn1
≤ 5	COCCNCCc1ccc2c(c1)sc1ncnc(Nc3ccc(OCc4cccc(F)c4)c(Cl)c3)c12
≤ 5	OC[C@@H](O)COc1ccc2c(c1)sc1ncnc(Nc3ccc(OCc4cccc(F)c4)c(Cl)c3)c12
≤ 5	CN1CCN(c2ccc3c(c2)sc2ncnc(Nc4ccc(OCc5ccccn5)c(Cl)c4)c23)CC1
≤ 5	OC[C@H](O)COc1ccc2c(c1)sc1ncnc(Nc3ccc(OCc4ccccn4)c(Cl)c3)c12
≤ 5	OCC(O)c1ccc2c(c1)sc1ncnc(Nc3ccc(OCc4ccccn4)c(Cl)c3)c12 (centres undefined)
≤ 5	COCCN1CCN(CCc2ccc3c(c2)sc2ncnc(Nc4ccc(OCc5cccc(F)c5)c(Cl)c4)c23)CC1
≤ 5	OCC(CO)c1ccc2c(c1)sc1ncnc(Nc3ccc(OCc4cccc(F)c4)c(Cl)c3)c12
≤ 5	CS(=O)(=O)CCNC(=O)Cc1ccc2c(c1)sc1ncnc(Nc3ccc4c(cnn4Cc4cccc(F)c4)c3)c12
≤ 5	CN1CCN(CCc2ccc3c(c2)sc2ncnc(Nc4ccc(OCc5cccc(F)c5)c(Cl)c4)c23)CC1

IC50 [µM]	Structure (SMILES)
≤ 5	OCC(O)c1ccc2c(c1)sc1ncnc(Nc3ccc(OCc4cccc(F)c4)c(Cl)c3)c12 (centres undefined)
≤ 5	OC[C@H](O)c1ccc2c(c1)sc1ncnc(Nc3ccc4c(cnn4Cc4cccc(F)c4)c3)c12
≤ 5	CS(=O)(=O)CCNCCc1ccc2c(c1)sc1ncnc(Nc3ccc(OCc4ccccn4)c(Cl)c3)c12
≤ 5	COC[C@@H]1CCCN1C(=O)Cc1ccc2c(c1)sc1ncnc(Nc3ccc(OCc4ccccn4)c(Cl)c3)c12
≤ 5	O=C(Cc1ccc2c(c1)sc1ncnc(Nc3ccc(OCc4cccc(F)c4)c(Cl)c3)c12)N1CCOCC1
≤ 5	Fc1cccc(Cn2ncc3cc(Nc4ncnc5sc6cc(CCN7CCOCC7)ccc6c45)ccc32)c1
≤ 5	Fc1cccc(COc2ccc(Nc3ncnc4sc5cc(OCCN6CCCC6)ccc5c34)cc2Cl)c1
≤ 5	O=C(Cc1ccc2c(c1)sc1ncnc(Nc3ccc(OCc4cccc(F)c4)c(Cl)c3)c12)NCCN1CCOCC1
≤ 5	CN(C)CCNC(=O)CCc1ccc2c(c1)sc1ncnc(Nc3ccc(OCc4cccc(F)c4)c(Cl)c3)c12
≤ 5	O=C(Cc1ccc2c(c1)sc1ncnc(Nc3ccc4c(cnn4Cc4cccc(F)c4)c3)c12)NC1CN2CCC1CC2 (centres undefined)
≤ 5	OCCc1ccc2c(c1)sc1ncnc(Nc3ccc(OCc4ccccn4)c(Cl)c3)c12
≤ 5	Fc1cccc(COc2ccc(Nc3ncnc4sc5cc(CCBr)ccc5c34)cc2Cl)c1
≤ 5	OC[C@@H](O)c1ccc2c(c1)sc1ncnc(Nc3ccc4c(cnn4Cc4cccc(F)c4)c3)c12
≤ 5	COC(=O)/C=C/c1ccc2c(c1)sc1ncnc(Nc3ccc(OCc4cccc(F)c4)c(Cl)c3)c12
≤ 5	OCCN(CCO)CCc1ccc2c(c1)sc1ncnc(Nc3ccc(OCc4cccc(F)c4)c(Cl)c3)c12
≤ 5	O=C(Cc1ccc2c(c1)sc1ncnc(Nc3ccc(OCc4ccccn4)c(Cl)c3)c12)N1CCC[C@@H]1CO
≤ 5	OC[C@H](O)COc1ccc2c(c1)sc1ncnc(Nc3ccc(OCc4cccc(F)c4)c(Cl)c3)c12
≤ 5	Fc1cccc(Cn2ncc3cc(Nc4ncnc5sc6cc(N7CCNCC7)ccc6c45)ccc32)c1
≤ 5	O=C(/C=C/c1ccc2c(c1)sc1ncnc(Nc3ccc(OCc4cccc(F)c4)c(Cl)c3)c12)N1CCOCC1
≤ 5	COCCN(CCOC)C(=O)Cc1ccc2c(c1)sc1ncnc(Nc3ccc(OCc4ccccn4)c(Cl)c3)c12
≤ 5	OCCc1ccc2c(c1)sc1ncnc(Nc3ccc(OCc4cccc(F)c4)c(Cl)c3)c12

Structure (SMILES)	IC50 [µM]
CN(C)[C@H]1CCN(C(=O)Cc2ccc3c(c2)sc2ncnc(Nc4ccc(OCc5cscn5)c(Cl)c4)c23)C1	≤ 5
CN1CCN(C(=O)Cc2ccc3c(c2)sc2ncnc(Nc4ccc(OCc5cccc(F)c5)c(Cl)c4)c23)CC1	≤ 5
CN1CCN(C(=O)Cc2ccc3c(c2)sc2ncnc(Nc4ccc(OCc5cscn5)c(Cl)c4)c23)CC1	≤ 5
CN(C)[C@@H]1CCN(C(=O)Cc2ccc3c(c2)sc2ncnc(Nc4ccc(OCc5cscn5)c(Cl)c4)c23)C1	≤ 5
CN1CCN(C(=O)Cc2ccc3c(c2)sc2ncnc(Nc4ccc5c(cnn5Cc5cccc(F)c5)c4)c23)CC1	≤ 5
CN(C)[C@H]1CCN(C(=O)Cc2ccc3c(c2)sc2ncnc(Nc4ccc5c(cnn5Cc5cccc(F)c5)c4)c23)C1	≤ 5
